Laboratory results taken from publication PMC4932537, “Search for Potent and Selective Aurora A Inhibitors Based on General Ser/Thr Kinase Pharmacophore Model” (Pharmaceuticals, 2016).
Structures can show the parent of a compound that is named as a salt.

Experiments:
Aurora A = target: T1, Aurora A (Homo sapiens, UniProt O14965); experiment: Aurora A kinase inhibition (biochemical assay); details: Table 1; read-out: Aurora A, IC50
T1 sequence (O14965 1-403): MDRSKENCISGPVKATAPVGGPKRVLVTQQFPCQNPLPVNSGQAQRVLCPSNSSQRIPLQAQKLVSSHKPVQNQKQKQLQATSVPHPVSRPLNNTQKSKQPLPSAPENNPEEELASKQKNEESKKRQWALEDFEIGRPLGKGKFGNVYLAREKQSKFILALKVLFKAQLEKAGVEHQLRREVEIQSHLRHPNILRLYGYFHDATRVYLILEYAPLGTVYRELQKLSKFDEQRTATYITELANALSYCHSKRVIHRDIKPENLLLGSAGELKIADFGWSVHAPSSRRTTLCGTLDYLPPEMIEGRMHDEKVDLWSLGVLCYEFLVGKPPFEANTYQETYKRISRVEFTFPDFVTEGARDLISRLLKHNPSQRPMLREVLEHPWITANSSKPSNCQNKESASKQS

Aurora B = Aurora B (Homo sapiens, UniProt Q96GD4); experiment: Aurora B kinase inhibition; format: biochemical; details: Table 1
Aurora B, sequence (Q96GD4 whole entry): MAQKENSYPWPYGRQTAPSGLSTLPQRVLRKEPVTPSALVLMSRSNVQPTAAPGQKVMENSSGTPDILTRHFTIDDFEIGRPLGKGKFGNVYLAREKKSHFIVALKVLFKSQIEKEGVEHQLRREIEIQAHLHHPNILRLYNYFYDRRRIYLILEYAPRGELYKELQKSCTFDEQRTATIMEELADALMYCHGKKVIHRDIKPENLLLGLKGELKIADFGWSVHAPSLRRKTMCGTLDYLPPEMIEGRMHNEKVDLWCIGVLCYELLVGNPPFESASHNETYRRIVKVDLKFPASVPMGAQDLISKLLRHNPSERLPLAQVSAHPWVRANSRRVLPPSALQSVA

Haspin = target: T2, Haspin (Homo sapiens, UniProt Q8TF76); experiment: Haspin kinase inhibition; format: biochemical; details: Table 1
T2 sequence (Q8TF76 1-798): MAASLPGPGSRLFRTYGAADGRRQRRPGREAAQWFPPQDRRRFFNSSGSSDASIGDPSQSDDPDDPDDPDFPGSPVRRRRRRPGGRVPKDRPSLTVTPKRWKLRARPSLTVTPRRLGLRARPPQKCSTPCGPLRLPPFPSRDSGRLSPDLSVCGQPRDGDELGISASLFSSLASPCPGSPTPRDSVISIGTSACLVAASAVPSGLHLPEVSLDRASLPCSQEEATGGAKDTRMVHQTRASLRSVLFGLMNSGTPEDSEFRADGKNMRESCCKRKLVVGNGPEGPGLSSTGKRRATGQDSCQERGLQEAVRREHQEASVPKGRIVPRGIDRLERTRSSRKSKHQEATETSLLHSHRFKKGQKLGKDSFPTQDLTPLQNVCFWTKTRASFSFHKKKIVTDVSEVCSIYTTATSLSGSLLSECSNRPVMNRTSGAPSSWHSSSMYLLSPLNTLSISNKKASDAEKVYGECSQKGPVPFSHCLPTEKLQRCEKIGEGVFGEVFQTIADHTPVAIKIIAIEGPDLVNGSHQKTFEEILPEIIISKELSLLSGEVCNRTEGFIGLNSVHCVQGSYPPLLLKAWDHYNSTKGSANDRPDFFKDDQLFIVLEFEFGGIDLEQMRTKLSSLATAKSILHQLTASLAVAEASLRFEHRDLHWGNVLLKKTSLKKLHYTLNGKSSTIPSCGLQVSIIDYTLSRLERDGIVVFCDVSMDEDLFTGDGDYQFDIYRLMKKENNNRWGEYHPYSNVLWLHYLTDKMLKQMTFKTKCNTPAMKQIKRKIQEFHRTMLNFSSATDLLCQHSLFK
Excerpt: Table 1 Activity of compounds fitting to general pharmacophore model against selected Ser/Thr kinases. | column: Haspin, IC50, μM

| SMILES | IC50 (Aurora A) [nM] | IC50 (Aurora B) [nM] | IC50 (Haspin) [nM] |
| --- | --- | --- | --- |
| CCCc1cnc(Nc2cccc(C3CCN(C(=O)C(C)(C)N)CC3)n2)s1 [Compound 1, 2-Amino-2-methyl-1-(4-(6-(5-propylthiazole-2-ylamino)pyridin-2-yl)piperidin-1-yl)propan-1-one hydrochloride] | 2060 ± 150 | 1450 ± 170 | 1490 ± 150 |
| CCCc1cnc(Nc2cccc(C3CCN(C(=O)CN)CC3)n2)s1 [Compound 4, 2-Amino-1-(4-(6-(5-propylthiazol-2-ylamino)pyridin-2-yl)piperidin-1-yl)ethanone] | 2080 ± 250 | 1720 ± 190 | 80 ± 8 |
| CCCc1cnc(Nc2cccc(C3CCN(C(=O)CNC)CC3)n2)s1 [Compound 5, 2-(Methylamino)-1-(4-(6-(5-propylthiazol-2-ylamino)pyridin-2-yl)piperidin-1-yl)ethanone] | 1440 ± 130 | 910 ± 80 | 430 ± 34 |
| CCCc1cnc(Nc2cccc(C3CCN(C(=O)[C@@H](C)N)CC3)n2)s1 [Compound 6, (R)-2-Amino-1-(4-(6-(5-propylthiazol-2-ylamino)-pyridin-2-yl)piperidin-1-yl)propan-1-one] | 1670 ± 170 | 1750 ± 180 | 1120 ± 110 |
| O=C(C1CNCCO1)N1CCC(c2cccc(Nc3ncc(-c4ccccc4)s3)n2)CC1 (stereo not drawn) [Compound 10, Morpholin-2-yl(4-(6-(5-phenylthiazol-2-ylamino)pyridin-2-yl)piperidin-1-yl)methanone] | 8380 ± 840 | 840 ± 90 | 7800 ± 810 |

Results, then the compound that gave them:

| IC50 (Aurora A) [nM] | IC50 (Aurora B) [nM] | IC50 (Haspin) [nM] | SMILES |
| --- | --- | --- | --- |
| 1950 ± 220 | 1760 ± 160 | 7060 ± 680 | CCCc1cnc(Nc2cccc(C3CCN(C(=O)CN(C)C)CC3)n2)s1 [Compound 3, 2-(Dimethylamino)-1-(4-(6-(5-propylthiazol-2-ylamino)pyridin2-yl)piperidin-1-yl)ethanone] |
| 2790 ± 300 | 2250 ± 230 | 3670 ± 370 | CCCc1cnc(Nc2cc(C(C)C)nc(C3CCN(C(=O)C(C)(C)N)CC3)n2)s1 [Compound 7, 2-Amino-1-(4-(4-isopropyl-6-(5-propylthiazol-2-ylamino)pyrimidin-2-yl)piperidin-1-yl)-2-methylpropan-1-one] |
| 3580 ± 430 | 2050 ± 240 | 2900 ± 430 | CCCc1cnc(Nc2cc(CC)nc(C3CCN(C(=O)C(C)(C)N)CC3)n2)s1 [Compound 8, 2-Amino-1-(4-(4-ethyl-6-(5-propylthiazol-2-ylamino)pyrimidin-2-yl)piperidin-1-yl)-2-methylpropan-1-one] |
| 3170 ± 330 | 8020 ± 800 | 270 ± 19 | CC(C)(N)C(=O)N1CCC(c2cccc(Nc3ncc(-c4ccccc4)s3)n2)CC1 [Compound 9, 2-Amino-2-methyl-1-(4-(6-(5-phenylthiazol-2-ylamino)pyridine-2-yl)propan-1-one hydrochloride] |
